Data published in publication PMC3392958, “Assay Format as a Critical Success Factor for Identification of Novel Inhibitor Chemotypes of Tissue-Nonspecific Alkaline Phosphatase from High-Throughput Screening” (Molecules, 2010).
pIC50, pKi: −log10 of the molar value. Like-named read-outs stand apart in the source and are kept apart here.

Key:
TNAP [1] = molecular target: T1, TNAP (Homo sapiens, UniProt P05186); assay: TNAP colorimetric assay (pNPP substrate, OD405, 1M DEA); type: biochemical; conditions: unit not given in Table 8; n=6; read-out: TNAP-Color
T1 construct: made in house; host or cells: COS-1 cells, transient expression; dialyzed serum-free conditioned medium
T1 sequence (P05186 18-501 limits assumed): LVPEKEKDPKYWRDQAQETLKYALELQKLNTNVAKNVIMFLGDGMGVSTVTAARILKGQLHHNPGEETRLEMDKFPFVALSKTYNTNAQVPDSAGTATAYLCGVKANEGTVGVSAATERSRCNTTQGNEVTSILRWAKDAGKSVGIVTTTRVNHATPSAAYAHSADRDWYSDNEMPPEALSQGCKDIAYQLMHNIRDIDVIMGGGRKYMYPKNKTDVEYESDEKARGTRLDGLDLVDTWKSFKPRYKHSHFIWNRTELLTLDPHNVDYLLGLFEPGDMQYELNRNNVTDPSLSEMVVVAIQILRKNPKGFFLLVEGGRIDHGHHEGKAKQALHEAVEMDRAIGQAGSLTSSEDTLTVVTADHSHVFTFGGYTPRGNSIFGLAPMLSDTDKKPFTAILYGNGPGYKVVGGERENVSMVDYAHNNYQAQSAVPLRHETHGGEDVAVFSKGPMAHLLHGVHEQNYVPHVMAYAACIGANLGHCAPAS
Experimental: The colorimetric TNAP assay was performed as previously described with slight modifications.

TNAP [2] = molecular target: T1, TNAP; assay: TNAP luminescent assay (CDP-star substrate, 100 mM DEA); type: biochemical
Experimental: (§1) Development of the novel luminescent TNAP assay using CDP-star substrate and detailed protocol of its application for HTS is described in more detail elsewhere. […] Briefly, the assay was 50 μM CDP-star substrate in assay buffer containing 100 mM DEA-HCl (pH 9.8), 1 mM MgCl2, and 20 μM ZnCl2. The luminescence signal was measured after a 30-min incubation at room temperature on an EnVision plate reader (PerkinElmer, Waltham, MA). […] Detailed protocols can be found in the respective AIDs, however, the final buffer conditions were 100 mM DEA, pH 9.8, 1.0 mM MgCl2, 0.02 mM ZnCl2 for both PLAP and IAP.

human PLAP = molecular target: T2, human PLAP (Homo sapiens, UniProt P05187); assay: PLAP luminescent assay (CDP-star); type: biochemical
T2 construct: made in house; host or cells: COS-1 cells, transient expression; dialyzed serum-free conditioned medium
T2 sequence (P05187 23-506 limits assumed): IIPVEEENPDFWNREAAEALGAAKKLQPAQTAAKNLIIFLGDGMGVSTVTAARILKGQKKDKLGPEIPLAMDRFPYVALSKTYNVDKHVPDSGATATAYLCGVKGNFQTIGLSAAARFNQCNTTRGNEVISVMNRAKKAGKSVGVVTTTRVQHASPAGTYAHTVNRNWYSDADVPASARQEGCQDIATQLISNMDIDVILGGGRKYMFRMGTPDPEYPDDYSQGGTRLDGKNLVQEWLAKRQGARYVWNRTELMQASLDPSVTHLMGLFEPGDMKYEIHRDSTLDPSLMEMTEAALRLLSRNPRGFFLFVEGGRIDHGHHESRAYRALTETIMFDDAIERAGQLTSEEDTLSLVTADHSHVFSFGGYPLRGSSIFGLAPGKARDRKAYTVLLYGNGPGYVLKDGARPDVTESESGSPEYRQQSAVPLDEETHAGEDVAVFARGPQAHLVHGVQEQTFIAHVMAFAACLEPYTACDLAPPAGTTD
Experimental: (§2) Selectivity of Primary Actives Against other Phosphatases: To assess the selectivity of compounds across the alkaline phosphatase family, luminescent assays were developed for human PLAP and human IAP with the same CDP-Star reagent.
as §1

IAP [3] = molecular target: T3, IAP (Homo sapiens, UniProt P09923); assay: IAP luminescent assay (CDP-star); type: biochemical
T3 construct: made in house; host or cells: COS-1 cells, transient expression; dialyzed serum-free conditioned medium
T3 sequence (P09923 20-503 limits assumed): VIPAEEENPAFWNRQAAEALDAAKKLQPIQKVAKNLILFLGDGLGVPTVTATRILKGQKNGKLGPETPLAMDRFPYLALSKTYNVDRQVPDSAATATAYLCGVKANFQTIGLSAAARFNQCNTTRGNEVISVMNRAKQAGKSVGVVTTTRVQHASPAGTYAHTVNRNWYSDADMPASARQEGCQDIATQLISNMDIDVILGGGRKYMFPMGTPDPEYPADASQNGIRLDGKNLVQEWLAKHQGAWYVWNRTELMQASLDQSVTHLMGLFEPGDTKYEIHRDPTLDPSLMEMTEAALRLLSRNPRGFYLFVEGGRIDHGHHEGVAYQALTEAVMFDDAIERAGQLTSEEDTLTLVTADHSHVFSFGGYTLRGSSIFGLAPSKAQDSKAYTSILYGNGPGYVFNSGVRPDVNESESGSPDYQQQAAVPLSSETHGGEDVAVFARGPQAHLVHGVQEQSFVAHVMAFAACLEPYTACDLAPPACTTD
Experimental: as §2, §1

IAP [4] = molecular target: T3, IAP; assay: IAP colorimetric assay (pNPP); type: biochemical; conditions: unit not given in Table 8; n=7; read-out: IAP-Color
Experimental: (§3) An additional sub-micromolar IAP assay using p-nitrophenol phosphate (pNPP) as substrate was developed at the CPCCG and was utilized for hit confirmation. Lead compounds were tested in a panel of assays consisting of: (1) TNAP luminescent assay (substrate: CDP-star); (2) TNAP colorimetric assay (substrate: pNPP); (3) PLAP luminescent assay (substrate: CDP-star); (4) IAP luminescent assay (substrate: CDP-star); (5) IAP colorimetric assay (substrate: pNPP); (6) solubility and (7) glyceraldehyde-3-phosphate dehydrogenase (GAPDH) assay. The latter two assays are designed to identify compounds that are likely to interfere with the assay components and would appear as non-specific inhibitors. Our approach to exploring the SAR for the IAP inhibitor series is shown graphically in Figure 8.

[5] = Solubility in aqueous solutions; type: physicochemical; conditions: read-out: concentrations at which compound is soluble
Experimental: as §3
The National Institutes of Health (NIH) Molecular Libraries Small Molecule Repository (MLSMR, http://www.mli.nih.gov/mlsmr) supplied the compound library. […] MLSMR compounds are acquired from commercial and in part from academic and government sources and are selected based on the following criteria: samples are available for resupply in 10-mg quantity, are at least 90% pure, have acceptable physicochemical properties, and contain no functional groups or moieties that are known to generate artifacts in HTS (http://mlsmr.glpg.com/). […]

GAPDH = GAPDH (Homo sapiens, UniProt P04406); assay: Glyceraldehyde-3-phosphate dehydrogenase (GAPDH) assay; type: biochemical
Chain of GAPDH (P04406 whole entry, species assumed): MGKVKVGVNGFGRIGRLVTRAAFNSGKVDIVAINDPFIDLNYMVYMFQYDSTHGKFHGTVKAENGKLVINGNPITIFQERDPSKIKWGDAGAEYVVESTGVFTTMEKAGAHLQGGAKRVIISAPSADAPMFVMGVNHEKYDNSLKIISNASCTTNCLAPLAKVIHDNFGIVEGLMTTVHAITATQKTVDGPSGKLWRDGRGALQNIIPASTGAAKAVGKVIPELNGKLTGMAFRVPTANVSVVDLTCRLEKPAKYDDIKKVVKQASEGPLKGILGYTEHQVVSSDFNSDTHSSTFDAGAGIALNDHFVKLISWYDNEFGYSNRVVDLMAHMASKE
Experimental: as §3
The National Institutes of Health (NIH) Molecular Libraries Small Molecule Repository (MLSMR, http://www.mli.nih.gov/mlsmr) supplied the compound library. The MLSMR, funded by the NIH, is responsible for the selection of small molecules for HTS screening, their purchase and quality control (QC) analysis, library maintenance, and distribution within the NIH Molecular Libraries Screening Center Network (MLSCN, http://www.mli.nih.gov/mlscn). Both MLSMR and MLSCN are parts of the Molecular Libraries Initiatives (MLI, http://nihroadmap.nih.gov/molecularlibraries) under the NIH Roadmap Initiatives (www.nihroadmap.nih.gov). MLSMR compounds are acquired from commercial and in part from academic and government sources and are selected based on the following criteria: samples are available for resupply in 10-mg quantity, are at least 90% pure, have acceptable physicochemical properties, and contain no functional groups or moieties that are known to generate artifacts in HTS (http://mlsmr.glpg.com/). Compounds are selected to represent diversified chemical space with clusters of closely related analogs around them to aid in the HTS-based structure-activity relationship (SAR) analysis. […]

[6] = design: method as in PubChem; conditions: assays deposited in PubChem; ref PubChem; cited from earlier work
CYP2C19 = system: CYP2C19; design: method as in PubChem; conditions: @ 5 µM; ref PubChem; cited from earlier work
CYP2C9 = system: CYP2C9; design: method as in PubChem; conditions: @ 5 µM; ref PubChem; cited from earlier work
[7] = Stability in rat liver microsomes (RLM); type: in vitro ADME; conditions: 20-minute incubation
[8] = system: primary calvarial osteoblast cultures; assay: Calcification in primary calvarial osteoblast cultures; type: cell-based, mouse; conditions: 30 µM, osteoblasts of WT mice cultured 19 days
Experimental: Figure 5 Suppression of calcification by CID-2931238 in primary calvarial osteoblast cultures. Osteoblasts from calvaria bones of WT mice were cultured for 19 days. Media supplemented with 50 µg/mL ascorbic acid and 10 mM β-glycerophosphate were renewed every second or third day (total seven medium changes). The concentration of each compound was maintained at 30 µM. RAU = relative absorbance units.

TNAP [9] = molecular target: T1, TNAP; design: method as in PMID 17638573; conditions: existing inhibitors of TNAP; read-out: TNAP- Color Ki; cited from earlier work

## O=C1C2CC=CCC2C(=O)N1c1nc(-c2ccccc2)n[nH]1 (stereo not shown) [CID-2946732]
TNAP [1]
  pIC50: < 4.00
TNAP [2]; phtalimide triazole series, read-out: IC50 TNAP- Lumi
  pIC50: 6.10
TNAP [2]; unit not given in Table 8, n=7, read-out: TNAP-Lumi
  pIC50: 6.10
Human PLAP; unit not given in Table 8, n=3, read-out: PLAP-Lumi
  pIC50: 5.32
IAP [3]
  mode of IAP inhibition versus the CDP-star substrate: non-competitive
  potency relative to all other existing small-molecule inhibitors of IAP: > 6,500 fold
  selectivity for IAP over TNAP: 7 fold
IAP [3]; phtalimide triazole series, read-out: IC50 IAP-Lumi
  pIC50: 6.92
IAP [3]; unit not printed in Table 8 ([…]), n=7, read-out: IAP-Lumi
  pIC50: 6.91
IAP [4]
  pIC50: 5.86
[5]
  solubility: < 25 µM
GAPDH
  effect on GAPDH activity: no effect
[6]
  cytotoxicity: no cytotoxicity
CYP2C19
  2C19: 79.6% I @
CYP2C9
  2C9: 92.5% I @

## COc1ccc(OC)c(S(=O)(=O)Nc2cnc3ccccc3c2)c1 [MLS-0038949]
Human PLAP; at or below 100 µM
  inhibition of PLAP: did not show any inhibition
Human PLAP; read-out: Selectivity Panel IC50 PLAP
  pIC50: < 4.00
IAP [3]; at or below 100 µM
  inhibition of IAP: did not show any inhibition
IAP [3]; read-out: Selectivity Panel IC50 IAP
  pIC50: < 4.00
[5]
  solubility: < 25 µM
GAPDH
  effect on GAPDH activity: no effect
[7]
  compound remaining in rat liver microsomes: virtually all-of-the compound remained
[8]
  inhibition of mineralization: completely inhibited mineralization
[6]
  cytotoxicity: no cytotoxicity

## O=C(NCCO)c1cc(-c2ccc(Cl)c(Cl)c2Cl)n[nH]1 [MLS-0146291]
TNAP [2]
  selectivity index against the closest counter-targets (PLAP, GAPDH): > 2,000 fold
TNAP [2]; TNAP, read-out: IC50 (Figure 6, pyrazole series optimization)
  pIC50: 8.30
TNAP [2]; read-out: TNAP IC50, luminescent assay
  pIC50: 8.28
Human PLAP; at or below 10 µM
  inhibition of PLAP: did not show any inhibition
GAPDH; at or below 10 µM
  inhibition of GAPDH: did not show any inhibition

## O=C(c1ccccc1)C(Sc1nnc[nH]1)c1ccccc1 (stereo not shown) [MLS-5361418]
TNAP [9]
  pKi: 5.25

## Cn1cnnc1Sc1nc(Nc2ccccc2)nc(Nc2ccccc2)n1 [MLS-5804079]
TNAP [9]
  pKi: 5.19
